Test results reported in the supplement of paper PMC10307832.

What was measured:
Test in all cases: relative viability (nuclei count vs DMSO), 5 days (fraction); higher = more cells survive
TPCA-1 + Vorinostat = compound: C1=CC(=CC=C1C2=CC(=C(S2)NC(=O)N)C(=O)N)F [TPCA-1] + O=C(CCCCCCC(=O)Nc1ccccc1)NO [Vorinostat] (partner 1 µM)
In short: (§1)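 Lung cancer cell lines were seeded in 1536-well plates and dosed by pin tool the next day, with either a single drug or a fixed anchor-drug dose combined with five library-drug doses (not always all listed) spaced in √10 steps. Five days later, one step fixed the cells and stained their nuclei (final 0.05% Triton X-100, 1% formaldehyde, 1 ug/ml Hoechst), and nuclei were counted on 4× images. Relative viability is the nuclei count in treated wells divided by the count in vehicle wells, and each value is the median of duplicate plates.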

[1] = compound: C[C@]12O[C@H](C[C@]1(O)CO)n1c3ccccc3c3c4c(c5c6ccccc6n2c5c31)CNC4=O [Lestaurtinib] + CS(=O)(=O)N1CCN(Cc2cc3nc(-c4cccc5[nH]ncc45)nc(N4CCOCC4)c3s2)CC1 [Pictilisib] (partner 1 µM)
In short: as §1

[2] = compound: C[C@]12O[C@H](C[C@]1(O)CO)n1c3ccccc3c3c4c(c5c6ccccc6n2c5c31)CNC4=O [Lestaurtinib] + O=C(CCCCCCC(=O)Nc1ccccc1)NO [Vorinostat] (partner 1 µM)
In short: as §1

[3] = compound: C1/C(=C\C2=CC=CS2)/C(=O)/C(=C/C3=CC=CS3)/C1 + CCNC(=O)c1noc(-c2cc(C(C)C)c(O)cc2O)c1-c1ccc(CN2CCOCC2)cc1 [Luminespib] (partner 0.01 µM)
In short: as §1

Cell Line	relative viability (TPCA-1 + Vorinostat; first compound 0.04 µM)	relative viability (TPCA-1 + Vorinostat; first compound 0.1265 µM)	relative viability (TPCA-1 + Vorinostat; first compound 0.4 µM)	relative viability (TPCA-1 + Vorinostat; first compound 1.265 µM)	relative viability (TPCA-1 + Vorinostat; first compound 4 µM)	relative viability ([1]; first compound 0.005 µM)	relative viability ([1]; first compound 0.01581 µM)	relative viability ([1]; first compound 0.05 µM)	relative viability ([1]; first compound 0.1581 µM)	relative viability ([1]; first compound 0.5 µM)	relative viability ([2]; first compound 0.005 µM)	relative viability ([2]; first compound 0.01581 µM)	relative viability ([2]; first compound 0.1581 µM)	relative viability ([2]; first compound 0.5 µM)	relative viability ([3]; first compound 0.2 µM)	relative viability ([3]; first compound 0.6325 µM)	relative viability ([3]; first compound 2 µM)	relative viability ([3]; first compound 6.325 µM)	relative viability ([3]; first compound 20 µM)	relative viability ([2]; first compound 0.05 µM)
NCI-H322M	0.976	0.89	0.958	0.864	0.431	0.493	0.5	0.445	0.443	0.401	0.764	0.935	0.701	0.461	0.994	0.831	0.938	0.812	0.745	
NCI-H358	0.695	0.576	0.634	0.409	0.168	0.346	0.28	0.28	0.221	0.181	0.691	0.539	0.145	0.117	0.324	0.453	0.337		0.341	0.382
NCI-H441	0.776	0.636	0.717	0.577	0.476	0.346	0.342	0.215	0.299	0.171	0.641	0.837	0.573	0.389	0.331	0.377	0.343	0.37	0.345	0.62
NCI-H460	0.878	0.686		0.682	0.563	0.315	0.392	0.298	0.224	0.201	1	1.01	1.1	0.503	0.0304	0.0338	0.0299	0.02	0.0356	0.653
NCI-H520	0.72	0.636	0.782	0.605	0.497	0.279	0.319	0.211	0.228	0.18	0.68	0.675	0.371	0.211	0.231	0.218	0.212	0.209	0.242	0.632
NCI-H596	0.64	0.613	0.696	0.668	0.616	0.375	0.378	0.375	0.31	0.293	0.539	0.746	0.645	0.795	1.06	1.09	1.08	0.912	0.992	0.718
NCI-H647	0.48	0.599	0.518	0.312	0.218	0.413	0.289	0.197	0.193	0.105	0.629	0.695	0.284	0.109	0.154	0.186	0.149	0.203	0.158	0.391
NCI-H650	0.414	0.402	0.41	0.308	0.27	0.816	0.818	0.63	0.399	0.332	0.448	0.427	0.28	0.149	0.901	0.701	0.826	0.735	0.944	0.385
NCI-H661	0.739	0.759	0.806	0.754	0.483	0.35	0.461	0.411	0.352	0.336	0.873	0.669	0.4	0.339	0.942	0.964	0.934	0.843	0.929	0.525
NCI-H727	1.21	0.947	1.26	1.25	1.31	0.396	0.566	0.278	0.409	0.229	1.23	1.35		0.625	0.428	0.336	0.433	0.477	0.308	1.17
NCI-H838	0.752	0.64	0.676	0.648	0.363	0.492	0.479	0.378	0.309	0.169	0.792	0.724	0.333	0.172	0.387	0.253	0.309	0.222	0.281	0.681
NCI-H1355	0.735	0.603	0.611	0.582	0.553	0.412	0.363	0.314	0.389	0.273	0.733	0.675	0.412	0.31	0.71	0.7	0.733	0.687	0.662	0.457
NCI-H1395	0.637	0.645	0.856	0.604	0.55	0.597	0.542	0.536	0.463	0.405	0.696	0.902	0.47	0.343	0.743	0.701	0.704	0.738	0.663	0.607
NCI-H1437	0.921	0.867	0.897	0.819	0.784	0.466	0.491	0.375	0.245	0.14	0.819	1	0.731	0.525	1.26	1.23	1.06	0.95	1.09	0.843
NCI-H1650	0.717	0.575	0.584	0.675	0.498	0.594	0.662	0.566	0.463	0.153	0.667	0.528	0.54	0.491	0.176	0.194	0.205	0.218	0.185	0.784
NCI-H1651	0.571	0.429	0.629	0.496	0.239	0.59	0.736	0.309	0.542	0.286	0.555	0.617	0.58	0.23	0.97	0.933	1.13	0.751	0.716	0.539

Cell Line	relative viability (TPCA-1 + Vorinostat; first compound 0.04 µM)	relative viability (TPCA-1 + Vorinostat; first compound 0.1265 µM)	relative viability (TPCA-1 + Vorinostat; first compound 0.4 µM)	relative viability (TPCA-1 + Vorinostat; first compound 1.265 µM)	relative viability (TPCA-1 + Vorinostat; first compound 4 µM)	relative viability ([1]; first compound 0.005 µM)	relative viability ([1]; first compound 0.01581 µM)	relative viability ([1]; first compound 0.05 µM)	relative viability ([1]; first compound 0.1581 µM)	relative viability ([1]; first compound 0.5 µM)	relative viability ([2]; first compound 0.005 µM)	relative viability ([2]; first compound 0.01581 µM)	relative viability ([2]; first compound 0.1581 µM)	relative viability ([2]; first compound 0.5 µM)	relative viability ([3]; first compound 0.2 µM)	relative viability ([3]; first compound 0.6325 µM)	relative viability ([3]; first compound 2 µM)	relative viability ([3]; first compound 6.325 µM)	relative viability ([3]; first compound 20 µM)	relative viability ([2]; first compound 0.05 µM)
NCI-H1666	1.08	0.966	1.02	0.988	1.1	0.46	0.486	0.39	0.358	0.388	1.1	1.22	0.998	0.799	1.09	1.01	1.02	0.49	1.04	1.24
NCI-H1734	0.957	0.737	0.88	0.839	0.279	0.444	0.399	0.316	0.251	0.196	0.872	0.824	0.258	0.212	0.193	0.19	0.209	0.22	0.211	0.525
NCI-H1755	0.717	0.84	0.813	0.667	0.554	0.444	0.492	0.211	0.269	0.175	0.654	0.74	0.397	0.356	0.51	0.402	0.642	0.341	0.274	0.674
NCI-H1793	0.619	0.61	0.967	0.674	0.236	0.319	0.224	0.235	0.34	0.263	0.531	0.884	0.524	0.252	0.229	0.178	0.189	0.153	0.179	0.561
NCI-H1915	0.541	0.5	0.537	0.392	0.386	0.945	0.966	0.654	0.418	0.282	0.512	0.489	0.325	0.162	0.851	0.786	0.741	0.356	0.821	0.427
NCI-H1944	0.648	0.709	0.675	0.512	0.521	0.352	0.313	0.313	0.305	0.248	0.556	0.521	0.408	0.205	0.762	0.731	0.674	0.695	0.626	0.693
NCI-H1975	0.724	0.699	0.712	0.632	0.444	0.275	0.252	0.205	0.217	0.171	0.755	0.735	0.578	0.382	0.313	0.163	0.194	0.312	0.177	0.617
NCI-H1993	0.877	0.74	0.921	0.694	0.533	0.802	0.724	0.69	0.716	0.663	0.823	0.808	0.455	0.485	0.727	0.765	0.726	0.763	1.78	0.754
NCI-H2009	0.746	0.785	0.693	0.757	0.675	0.795	0.691	0.43	0.54	0.149	0.782	0.759	0.689	0.501	1.05	1.05	0.941	0.741	1.03	0.665
NCI-H2023	0.634	0.608	0.772	0.506	0.241	0.255	0.27	0.167	0.155	0.0782	0.639	0.445	0.371	0.117	0.864	0.642	0.735	0.515	0.677	0.577
NCI-H2085		0.803	0.803	0.781	0.514	0.482	0.474	0.465	0.476	0.49	0.741	0.812	0.751	0.661	0.446	0.433	0.453	0.41	0.503	0.869
NCI-H2087	0.734	0.759	0.911	0.629	0.266	0.872	0.745	0.53	0.689	0.322	0.815	0.652	0.474	0.373	0.215	0.161	0.177	0.133	0.158	0.667
NCI-H2126	0.843	0.695	0.891	0.559	0.238	0.493	0.525	0.415	0.449	0.411	0.805	0.886	0.599	0.465	0.952	0.84	0.963	0.804	0.867	0.693
NCI-H2170	0.965	0.881	0.779	0.724	0.628	0.285	0.257	0.304	0.293	0.223	0.745	0.69	0.521	0.199	0.98	0.582	0.788	0.632	0.719	0.536
NCI-H2228	0.733	0.813	0.933	0.501	0.567	0.461	0.551	0.332	0.325	0.198	0.601	0.779	0.228	0.211	0.158	0.167	0.179	0.133	0.134	0.352
NCI-H2347	0.8	0.551	0.803	0.527	0.516	0.692	0.996	0.485	0.472	0.532	0.508	0.643	0.469	0.503	0.405	0.959	0.381		0.466	0.555
